Source: ChEMBL document CHEMBL2439974, “Design and Synthesis of 4-(4-Benzoylaminophenoxy)phenol Derivatives As Androgen Receptor Antagonists” (ACS Med Chem Lett, 2013)
Activity calls are given as the source filed them. The rule behind the calls is not given here.

Legend:
[1] = target: T1, Androgen receptor (Homo sapiens) (UniProt P10275); assay: Antagonist activity at androgen receptor in human MDA-kb2 cells assessed as inhibition of DHT-induced luciferase activity at 10 uM after 24 hrs by chemiluminescence assay relative to control; format: cell-based
T1 sequence (whole entry): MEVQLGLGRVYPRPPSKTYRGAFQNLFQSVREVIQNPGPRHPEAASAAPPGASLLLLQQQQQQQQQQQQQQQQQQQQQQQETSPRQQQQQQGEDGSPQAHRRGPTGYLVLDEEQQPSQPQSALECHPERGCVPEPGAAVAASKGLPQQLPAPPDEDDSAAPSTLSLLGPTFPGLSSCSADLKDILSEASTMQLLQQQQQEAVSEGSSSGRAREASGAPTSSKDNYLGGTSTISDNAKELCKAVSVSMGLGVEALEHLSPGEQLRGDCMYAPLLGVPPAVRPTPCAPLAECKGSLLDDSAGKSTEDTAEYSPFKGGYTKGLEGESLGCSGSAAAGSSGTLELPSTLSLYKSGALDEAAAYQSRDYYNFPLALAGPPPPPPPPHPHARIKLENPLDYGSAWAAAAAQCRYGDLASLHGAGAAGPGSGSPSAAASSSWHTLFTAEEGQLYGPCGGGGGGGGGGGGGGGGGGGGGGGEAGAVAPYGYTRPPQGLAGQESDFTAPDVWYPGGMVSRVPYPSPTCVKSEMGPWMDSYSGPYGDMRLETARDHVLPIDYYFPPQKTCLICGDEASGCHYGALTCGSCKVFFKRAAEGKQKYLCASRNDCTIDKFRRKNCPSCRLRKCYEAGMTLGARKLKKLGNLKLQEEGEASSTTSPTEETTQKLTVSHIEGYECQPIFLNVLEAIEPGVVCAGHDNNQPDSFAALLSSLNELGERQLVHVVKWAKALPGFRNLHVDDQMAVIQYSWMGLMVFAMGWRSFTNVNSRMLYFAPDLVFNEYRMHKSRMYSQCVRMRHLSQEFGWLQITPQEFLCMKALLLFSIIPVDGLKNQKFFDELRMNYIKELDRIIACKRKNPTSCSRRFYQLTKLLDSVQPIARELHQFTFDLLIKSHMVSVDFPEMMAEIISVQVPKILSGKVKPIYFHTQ

Androgen receptor = target: T2, Androgen receptor (Homo sapiens, UniProt P10275); assay: Displacement of [3H]-DHT from human GST-tagged androgen receptor LBD (627 to 919) expressed in Escherichia coli HB-101 after 15 hrs by liquid scintillation counting analysis
T2 sequence (P10275 whole entry): T1 sequence (whole entry)

[2] = target: Androgen receptor (Mus musculus) (UniProt P19091); assay: Antagonist activity at androgen receptor in mouse SC3 cells assessed as inhibition of DHT-induced cell growth at 10 uM after 3 days by CCK-8/WST-8 assay relative to control; format: cell-based; conditions: SC-3
Chain of Androgen receptor (Mus musculus) (P19091 whole entry): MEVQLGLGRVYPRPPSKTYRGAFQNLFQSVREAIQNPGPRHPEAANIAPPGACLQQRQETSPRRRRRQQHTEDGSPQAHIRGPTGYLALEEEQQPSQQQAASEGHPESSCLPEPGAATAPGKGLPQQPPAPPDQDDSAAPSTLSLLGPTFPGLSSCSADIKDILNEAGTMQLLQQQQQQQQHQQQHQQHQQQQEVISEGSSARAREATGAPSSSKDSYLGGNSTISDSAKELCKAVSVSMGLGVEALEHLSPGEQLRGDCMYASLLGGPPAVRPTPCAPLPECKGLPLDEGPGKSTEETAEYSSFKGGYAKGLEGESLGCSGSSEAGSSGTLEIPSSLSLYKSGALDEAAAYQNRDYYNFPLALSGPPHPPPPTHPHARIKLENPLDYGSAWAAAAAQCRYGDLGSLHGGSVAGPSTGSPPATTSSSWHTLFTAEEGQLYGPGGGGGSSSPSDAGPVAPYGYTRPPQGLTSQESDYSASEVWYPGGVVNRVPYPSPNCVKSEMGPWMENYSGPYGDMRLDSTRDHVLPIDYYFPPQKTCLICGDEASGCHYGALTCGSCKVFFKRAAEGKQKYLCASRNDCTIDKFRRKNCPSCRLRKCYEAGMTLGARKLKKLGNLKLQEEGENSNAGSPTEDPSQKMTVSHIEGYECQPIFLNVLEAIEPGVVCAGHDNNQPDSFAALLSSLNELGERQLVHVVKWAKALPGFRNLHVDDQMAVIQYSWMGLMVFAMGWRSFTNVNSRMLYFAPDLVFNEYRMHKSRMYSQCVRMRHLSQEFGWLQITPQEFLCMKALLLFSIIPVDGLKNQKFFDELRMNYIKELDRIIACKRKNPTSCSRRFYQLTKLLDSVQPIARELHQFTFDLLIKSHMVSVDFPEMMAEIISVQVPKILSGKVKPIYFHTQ

PC-3 = assay: Cytotoxicity against human PC3 cells assessed as growth inhibition after 3 days by WST-8 assay; format: functional, cell-based; conditions: PC-3, 72 h

With `COc1cccc(C(=O)Nc2ccc(Oc3ccc(O)cc3)nc2)c1` the inhibition [1] was “inactive” and the IC50 (Androgen receptor) was > 10 µM.

In the case of `O=C(Nc1ccc(Oc2ccc(O)cc2)cc1)c1cccc(O)c1`, the “growth inhibition (GI)” value [2] is reported as “inactive”.

`COc1cccc(C(=O)Nc2ccc(Oc3ccc(O)cc3)cc2)c1` was tested, and the IC50 (PC-3) was 5.6 µM, the inhibition [1] was 6% and the IC50 (Androgen receptor) was 20 µM.

`CC(C)(O)C(=O)Nc1ccc([N+](=O)[O-])c(C(F)(F)F)c1` gave an inhibition [1] of 60%.

In the case of `COc1cccc(C(=O)Nc2ccc(Oc3ccc(O)cc3)c(C)c2)c1`, the IC50 (PC-3) is reported as 5.7 µM, the inhibition [1] is reported as 66% and the IC50 (Androgen receptor) is reported as 9.2 µM.

With `CC(O)(CS(=O)(=O)c1ccc(F)cc1)C(=O)Nc1ccc(C#N)c(C(F)(F)F)c1` (stereo not drawn) [BICALUTAMIDE] the IC50 (PC-3) was > 10 µM.

For `O=C(Nc1ccc(Oc2ccc(O)cc2)cc1)c1ccc(O)cc1`, the “growth inhibition (GI)” value [2] was “inactive”.

In the case of `COc1cccc(C(=O)Nc2cnc(Oc3ccc(O)cc3)nc2)c1`, the inhibition [1] is reported as “inactive” and the IC50 (Androgen receptor) is reported as > 10 µM.

`O=C(Nc1ccc(Oc2ccccc2)cc1)c1ccccc1` showed a growth inhibition (GI) [2] of 20%.

With `COc1cccc(C(=O)Nc2cc(C)c(Oc3ccc(O)cc3)c(C)c2)c1` the IC50 (PC-3) was > 10 µM, the inhibition [1] was 69% and the IC50 (Androgen receptor) was 5.4 µM.
